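Cultured in 96-well plates, cells were exposed to test compound for 48 hours across five concentrations. At the GI50, growth is halved.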 Activity calls are given as the source filed them. No stated cut-off is given here; in the data, active = GI50 up to about 1.1 µM and inactive = higher.
Columns and labels:
Experiment in all cases: NCI-60 cell line screen, 48 h
M14 = tested on: M14
HCC 2998 = tested on: HCC 2998
NCI-H460 = tested on: NCI-H460
MDA-MB-435 = tested on: MDA-MB-435
KM12 = tested on: KM12
HT-29 = tested on: HT-29
UACC-62 = tested on: UACC-62
TK-10 = tested on: TK-10
OVCAR-8 = tested on: OVCAR-8
IGROV-1 = tested on: IGROV-1
SNB-19 = tested on: SNB-19
SK-MEL-2 = tested on: SK-MEL-2
A549 = tested on: A549
SF-268 = tested on: SF-268
UO-31 = tested on: UO-31
SR = tested on: SR
MOLT-4 = tested on: MOLT-4
T47D = tested on: T47D
OVCAR-3 = tested on: OVCAR-3
NCI-H226 = tested on: NCI-H226

Compound	GI50 (M14)	GI50 (HCC 2998)	GI50 (NCI-H460)	GI50 (MDA-MB-435)	GI50 (KM12)	GI50 (HT-29)	GI50 (UACC-62)	GI50 (TK-10)	GI50 (OVCAR-8)	GI50 (IGROV-1)	GI50 (SNB-19)	GI50 (SK-MEL-2)	GI50 (A549)	GI50 (SF-268)	GI50 (UO-31)	GI50 (SR)	GI50 (MOLT-4)	GI50 (T47D)	GI50 (OVCAR-3)	GI50 (NCI-H226)
O=c1[nH]nc(-c2ccccc2)n1-c1cccc([N+](=O)[O-])c1	> 100 µM (inactive)	> 100 µM (inactive)	> 100 µM (inactive)	> 100 µM (inactive)	> 100 µM (inactive)	> 100 µM (inactive)	> 100 µM (inactive)	> 100 µM (inactive)	> 100 µM (inactive)	> 100 µM (inactive)	> 100 µM (inactive)	> 100 µM (inactive)	> 100 µM (inactive)	> 100 µM (inactive)	38.5 µM (inactive)	> 100 µM (inactive)	> 100 µM (inactive)	> 100 µM (inactive)	> 100 µM (inactive)	> 100 µM (inactive)
CN1C(Cl)=NS(=O)(=O)c2ccccc21	> 100 µM (inactive)	> 100 µM (inactive)	92.7 µM (inactive)	> 100 µM (inactive)	> 100 µM (inactive)	> 100 µM (inactive)	> 100 µM (inactive)	> 100 µM (inactive)	> 100 µM (inactive)	> 100 µM (inactive)	> 100 µM (inactive)	> 100 µM (inactive)	> 100 µM (inactive)	> 100 µM (inactive)	> 100 µM (inactive)	18.7 µM (inactive)	51.4 µM (inactive)	> 100 µM (inactive)	> 100 µM (inactive)	> 100 µM (inactive)
CC1=CC[C@](C)(O)[C@@]2(C)CC[C@H]3C(=C(C)C)C(=O)C[C@]3(C)C[C@H]12	24.8 µM (inactive)	> 50 µM (inactive)		18.7 µM (inactive)	12.9 µM (inactive)	24.8 µM (inactive)	11.9 µM (inactive)	> 50 µM (inactive)	29.2 µM (inactive)	19.3 µM (inactive)	> 50 µM (inactive)	> 50 µM (inactive)	46.8 µM (inactive)	> 50 µM (inactive)	28.8 µM (inactive)	12.5 µM (inactive)	8.07 µM (inactive)	28.9 µM (inactive)	36.3 µM (inactive)	> 50 µM (inactive)
Cc1cccc2c1CC(C1OC(=O)c3ccccc31)C2=O (stereo unspecified)	> 100 µM (inactive)	> 100 µM (inactive)	> 100 µM (inactive)	> 100 µM (inactive)	> 100 µM (inactive)	48.5 µM (inactive)	> 100 µM (inactive)	> 100 µM (inactive)	> 100 µM (inactive)	> 100 µM (inactive)	> 100 µM (inactive)	> 100 µM (inactive)	> 100 µM (inactive)	> 100 µM (inactive)	> 100 µM (inactive)	> 100 µM (inactive)	> 100 µM (inactive)	> 100 µM (inactive)	> 100 µM (inactive)	> 100 µM (inactive)
Cc1ccc(N)c(S)c1	16.9 µM (inactive)	32.1 µM (inactive)	22 µM (inactive)	19 µM (inactive)	18.3 µM (inactive)	19.4 µM (inactive)	17.6 µM (inactive)	21.8 µM (inactive)	17.1 µM (inactive)	17.7 µM (inactive)	21.1 µM (inactive)	17.2 µM (inactive)	21.5 µM (inactive)	20.8 µM (inactive)	13.8 µM (inactive)	18 µM (inactive)	22 µM (inactive)	14.8 µM (inactive)	21.3 µM (inactive)	22 µM (inactive)
C=C(C)C1CC2(C)C(C)CC(O)CC2C(OC(=O)C=C(C)C)C1O (stereo unspecified)	33.7 µM (inactive)	43.8 µM (inactive)	22.8 µM (inactive)	38.1 µM (inactive)	33.7 µM (inactive)	24.4 µM (inactive)	71.9 µM (inactive)	49.2 µM (inactive)	40.6 µM (inactive)	40.5 µM (inactive)	22.2 µM (inactive)	61.5 µM (inactive)	29.4 µM (inactive)	23.7 µM (inactive)	24.4 µM (inactive)	17.8 µM (inactive)	18.1 µM (inactive)	31.8 µM (inactive)		0.933 µM (active)
Cc1cc(C(F)(F)F)cc(-n2nc(NS(=O)(=O)c3cc(C)c(Cl)cc3S)nc2N)n1	54.1 µM (inactive)	34.8 µM (inactive)	24.4 µM (inactive)	41.4 µM (inactive)	42.9 µM (inactive)	42 µM (inactive)	29.5 µM (inactive)	> 100 µM (inactive)	45.4 µM (inactive)	36.6 µM (inactive)	26.8 µM (inactive)	26.2 µM (inactive)	36.6 µM (inactive)	92.9 µM (inactive)		23.4 µM (inactive)	24.3 µM (inactive)	57.1 µM (inactive)	51.3 µM (inactive)	40.3 µM (inactive)
COC(=O)c1ccccc1C1CN=NC12Cc1ccc3ccccc3c1C2=O (stereo unspecified)	> 100 µM (inactive)	> 100 µM (inactive)	80 µM (inactive)	30.7 µM (inactive)	52.5 µM (inactive)		> 100 µM (inactive)	> 100 µM (inactive)	> 100 µM (inactive)	> 100 µM (inactive)	> 100 µM (inactive)	> 100 µM (inactive)	85.3 µM (inactive)	> 100 µM (inactive)	> 100 µM (inactive)	36.5 µM (inactive)	57.3 µM (inactive)	21.1 µM (inactive)	17.7 µM (inactive)	> 100 µM (inactive)
O=C(/C=C/c1ccc2c(c1)OCO2)NCc1ccco1	> 100 µM (inactive)	> 100 µM (inactive)	> 100 µM (inactive)	> 100 µM (inactive)	> 100 µM (inactive)	> 100 µM (inactive)	74.6 µM (inactive)	> 100 µM (inactive)	> 100 µM (inactive)	56 µM (inactive)	50.9 µM (inactive)	> 100 µM (inactive)	> 100 µM (inactive)		67.1 µM (inactive)	5.09 µM (inactive)	> 100 µM (inactive)	19.4 µM (inactive)	82.2 µM (inactive)	> 100 µM (inactive)
CC(=O)OCC12CN(C#N)C3C4COC(CC41)C1(C(=O)N(C)c4ccccc41)C32 (stereo unspecified)	20.2 µM (inactive)	28.2 µM (inactive)	31.3 µM (inactive)	26.8 µM (inactive)	36.5 µM (inactive)	33 µM (inactive)	22.6 µM (inactive)	20.4 µM (inactive)	19.5 µM (inactive)	24 µM (inactive)		24.9 µM (inactive)	28.4 µM (inactive)	29.1 µM (inactive)	13.3 µM (inactive)	14.6 µM (inactive)	7.48 µM (inactive)	18.8 µM (inactive)	3.58 µM (inactive)	15.8 µM (inactive)
O=C(O)c1nc2ccc(C(F)(F)F)cc2nc1NCc1ccc(F)cc1	18.5 µM (inactive)	22.8 µM (inactive)	19.4 µM (inactive)	> 100 µM (inactive)	26.4 µM (inactive)		15.9 µM (inactive)		21.5 µM (inactive)	25.4 µM (inactive)	24.5 µM (inactive)	19.5 µM (inactive)	19.1 µM (inactive)		2.75 µM (inactive)	15.3 µM (inactive)	9.23 µM (inactive)	20.8 µM (inactive)	8.34 µM (inactive)	39.5 µM (inactive)
